Reference: patent US4736051A, “Process for the preparation of an alkali metal salt of a diester phosphoric acid” (Kao Corporation, priority 1985, dated 1988)

Key:
Format in all cases: physicochemical
[1] = Phase diagram in aqueous system (FIG. 1)
[2] = Hygroscopicity of isolated powder; settings: white powder
[3] = Lather amount (lather volume) of 5% aqueous solution of surface active agent; settings: 100 g, 1000 rpm, 30 seconds agitation, 10 seconds standing, 40° C.
Procedure: The lather amount was measured according to the following manner. An aqueous solution containing 5% of surface active agent is prepared and 100 g of the aqueous solution is poured into a measuring cylinder, followed by agitation for 30 seconds by agitator. After agitation, the aqueous solution is placed as it is for 10 seconds, followed by subjecting to measurement of the lather volume. The revolution of the agitator is 1000 rpm and the agitator paddles are reversely rotated every 5 seconds. Temperature was maintained 40° C. during the measurement.

[4] = Craft point

Row | Molecule | phase diagram in aqueous systems [1] | hygroscopicity [2] | lather amount (lather Vol. ml) [3] [mL] | craft point (°C.) [4] [°C]
1 | C=C(C)C(=O)OCC(O)COP(=O)([O-])OCCCCCCCCCCCC.[Na+] (stereo not drawn) [Compound (XIV), sodium dodecyl 2-hydroxy-3-methacryloyloxypropyl phosphate] | liquid crystals |  |  | 
2 | CCCCCCCCCCCCOP(=O)([O-])OCC(O)C[N+](C)(C)C (stereo not drawn) [Example 14] |  | very hygroscopic |  | 
3 | CCCCCCCCCCCCOP(=O)([O-])[O-].[Na+].[Na+] [Sodium 1 dodecyl phosphate] |  |  | 260 | 32
4 | Sodium 2 dodecyl phosphate |  |  | 230 | 20
